{
  "source": "patent US5439930A",
  "about": "“Biologically active n-acylprolydipeptides having antiamnestic, antihypoxic and anorexigenic effects” (Russian-American Institute for New Drug Development, priority 1992, dated 1995)",
  "key": {"[1]": {"tested_on": "phenazepam withdrawn male albino rats", "assay": "Threshold of aggressive behavior during phenazepam withdrawal", "assay_type": "in vivo", "settings": "0.5 mg/kg i.p.; 24 hours after the last administration of phenazepam", "experimental": "(§1) The influence of Compound I on withdrawal syndrome caused by the interruption of chronic administration of benzodiazepine tranquilizer phenazepam (T. A. Voronina et al., In Fenazepam; A. V. Bogatsky, Ed.; Naukova dumka Publishers: Kiev, 1982; pp. 67-169) was studied in experiments on male albino rats weighing 190-200 g at the beginning and 300-350 g at the end of the experiment.\n(§2) Phenazepam (2 mg/kg intraperitoneally) or saline (control group of rats) were given once daily for 57 days. The withdrawal syndrome occurred 24-72 hours after the last injection. The withdrawal syndrome in rats consisted in \"anxiogenic-like\" state aggressiveness and accelerated development of kindled seizures caused by pentylentetrazol. Compound I was administered to the withdrawn rats in doses of 0.5 mg/kg intraperitoneally 15 minutes prior to testing.\nThe threshold of the aggressive behavior was determined in the experiment on the rats (R. Tedeshi et al., J. Pharmacol. Exp. Ther., 125, 28-34 (1959)). The paired rats were placed on the electrified floor; the strength of the current, which provokes the fighting, was registered."}, "lobectomized rats [2]": {"tested_on": "lobectomized rats", "assay": "Passive avoidance after frontal lobectomy", "assay_type": "in vivo", "settings": "9th day, 0.1 mg/kg for 9 days", "experimental": "(§3) The impairment of learning and memory was achieved also by frontal lobectomy, which was performed after passive avoidance or active avoidance learning. Compound I (0.1 mg/kg) was administered beginning from the first post-operational day and lasting for 9 days. The testing was performed at 4th and 9th days. […] The frontal lobectomy has as a consequence the decrease of the latency of the entering of the dark compartment; Compound I restored the passive avoidance reaction (Table 8)."}, "[3]": {"tested_on": "active avoidance learning, rats", "assay": "Active avoidance learning in shuttle-box test", "assay_type": "in vivo", "description": "(§4) The influence of Compound I on the active avoidance learning was studied in shuttle-box test (Ugo Basile, Italy). The conditioned reflex of active avoidance had been developed for 5 days with 50 daily trials for each rat. The learning task consisted in the rats' avoiding of the electric shock applied through the cage floor directly after sound. Rats could avoid the shock by moving into another compartment of the cage, but only while the sound was present (3 sec.)."}, "[4]": {"tested_on": "rat's offspring after prenatal alcoholization", "assay": "Open field locomotor activity and habituation of offspring after prenatal alcoholization", "assay_type": "in vivo, rats", "experimental": "The cognitive impairment in the rat's offspring was provoked by prenatal alcoholization or prenatal hypoxia. Prenatal alcoholization was achieved by peroral administration of 5 g/kg/day (25% solution) ethanol to pregnant female rats during whole pregnancy. To achieve prenatal hypoxia the rats on the 15th day of pregnancy were placed into hypobaric barometric chamber (the \"elevating\" up 8500 m altitude; exposition for 2 hours).\nThe treatment of the offspring was performed from 8th day to 20th day. Compound I was administered in the dose of 0.1 mg/kg/day subcutaneously. The testing was performed on two-month old rats.\nChronic postnatal administration of Compound I restored the normal course of the habituation (Table 10)."}, "lobectomized rats [5]": {"tested_on": "lobectomized rats", "assay": "Active avoidance after frontal lobectomy", "assay_type": "in vivo", "settings": "0.1 mg/kg daily", "experimental": "as §3\nCompound I increased the percentage of the animals performing the active avoidance reaction and the coefficient of the preserving (Table 8)."}, "outbred albino mice": {"tested_on": "outbred albino mice", "assay": "Hypobaric hypoxia survival (barometric chamber, 11,000 m)", "assay_type": "in vivo", "settings": "0.5 mg/kg 15 minutes before hypoxia, 1 hour exposition", "experimental": "The protective effect of Compound I in hypoxia was assessed using the barometric chamber by \"elevating\" of the outbred albino mice (18-22 g) to the altitude of 11,000 m at a speed of 1000 m/min. After 1 hour exposition the percentage of surviving mice after 0.9% saline pretreatment was 15%."}, "[6]": {"tested_on": "damaged stable active avoidance reaction, rats", "assay": "Conditional active avoidance reflex after damage (simultaneous sound and footshock)", "assay_type": "in vivo", "description": "as §4\nIn other experiments, stable active avoidance reaction was damaged by simultaneously switching of sound and electrical footshock for 5 trials. Compound I prevented the impairment of avoidance (Table 6)."}, "[7]": {"tested_on": "undertraining of the passive avoidance reflex, rats", "assay": "Passive avoidance with undertraining, different regimes of administration", "assay_type": "in vivo", "settings": "0.5 mg/kg i.p."}, "[8]": {"tested_on": "phenazepam withdrawn male albino rats", "assay": "Conflict situation test during phenazepam withdrawal", "assay_type": "in vivo", "settings": "0.5 mg/kg i.p. 15 minutes prior to testing; 24 hours after phenazepam withdrawal", "experimental": "as §1, §2\nThe conflict situation test was used to reveal the \"anxiety\" of rats (J. R. Vogel et al., Psychopharmacologia, 21, 1-7 (1971)). This experiment involved previous training of water deprivated rats to drink water from a trough. Next day electrical stimulation was given by a 0.5 mA electric current through the trough. A conflict situation was created by clashing of the two different reflexes (drinking and self-defense).\nThis behavior in the conflict situation test can be considered as \"anxiogenic-like\" one. […]"}, "[9]": {"tested_on": "phenazepam withdrawn male albino rats", "assay": "Pentylenetetrazol kindling seizures during phenazepam withdrawal", "assay_type": "in vivo", "experimental": "as §1, §2\nThe seizure reactions of rats were studied using chemical kindling (C.R. Mason et al., Epilepsia, 13, 663-674 (1972); R. M. Post et al., Handbook of Biological Psychiatry, Part IV, No. 7, Marcel-Dekker (1981) pp. 609-651) produced by small doses of pentylene-tetrazol (35 mg/kg, intraperitoneally) administrated 24, 48 and 72 h after phenazepam withdrawal. The degree of seizures was evaluated by 4 points: tremor (1 point); jerk (2 point); clonic seizures (3 points); tonic seizures and death (4 points).\nOur experiments pointed out that the pentylenetetrazol seizures were more pronounced in phenazepam withdrawn rats than in the control one. Compound I diminished the degree of kindling provoked by pentylenetetrazol (Table 14)."}},
  "note": "Where a SMILES comes first, the peptide text is derived from it. The star is where a group is joined. PhAc = O=C(Cc1ccccc1)*",
  "data": [
    {"smiles": "CCOC(=O)CNC(=O)[C@@H]1CCCN1C(=O)Cc1ccccc1", "note": "[Compound I, N-phenacetyl-L-prolylglycine ethyl ester] (PhAc-Pro-Gly-OEt)", "values": [
      {"measurement": "Aggression Threshold (mA)", "setting": "[1]", "result": "0.92 ± 0.1", "unit": "mA"},
      {"measurement": "Passive avoidance test (latency, sec)", "setting": "lobectomized rats [2]", "result": 141.2, "unit": "s"},
      {"measurement": "Percentage of the rats reached the stable avoidance", "setting": "[3]; day 1 of learning, 0.1 mg/kg daily i.p. 14 days before and during learning", "result": 0},
      {"measurement": "Percentage of the rats reached the stable avoidance", "setting": "[3]; day 2 of learning, 0.1 mg/kg daily i.p.", "result": 15},
      {"measurement": "Percentage of the rats reached the stable avoidance", "setting": "[3]; day 3 of learning, 0.1 mg/kg daily i.p.", "result": 43},
      {"measurement": "Percentage of the rats reached the stable avoidance", "setting": "[3]; day 4 of learning, 0.1 mg/kg daily i.p.", "result": 57},
      {"measurement": "Percentage of the rats reached the stable avoidance", "setting": "[3]; day 5 of learning, 0.1 mg/kg daily i.p.", "result": 67},
      {"measurement": "Number of horizontal movements", "setting": "[4]; day 1 of observation, chronic postnatal administration", "result": 8.2},
      {"measurement": "Number of horizontal movements", "setting": "[4]; day 5 of observation", "result": 3.7},
      {"measurement": "Coefficient of Habituation", "setting": "[4]; open field", "result": 0.45},
      {"measurement": "%% of avoiding rats", "setting": "lobectomized rats [5]; 4th day", "result": 42.8, "unit": "%"},
      {"measurement": "Active avoidance test - coeff. of preserving", "setting": "lobectomized rats [5]; 4th day", "result": 28.1, "unit": "%"},
      {"measurement": "%% of avoiding rats", "setting": "lobectomized rats [5]; 9th day", "result": 57.1, "unit": "%"},
      {"measurement": "Active avoidance test - coeff. of preserving", "setting": "lobectomized rats [5]; 9th day", "result": 38.1, "unit": "%"},
      {"measurement": "Percentage of surviving mice", "setting": "outbred albino mice", "result": 43.7, "unit": "%"},
      {"measurement": "Percentage of avoidances during 5 trials", "setting": "[6]; after damage, 1-5th trials", "result": 86.7},
      {"measurement": "Percentage of avoidances during 5 trials", "setting": "[6]; after damage, 6-10th trials", "result": "88.9 ± 4.8"},
      {"measurement": "Percentage of avoidances during 5 trials", "setting": "[6]; after damage, 11-15th trials", "result": 97.8},
      {"measurement": "Percentage of avoidances during 5 trials", "setting": "[6]; before damage", "result": "88.9 ± 4.8"},
      {"measurement": "Mnestic activity (Ma), administration 15 min. before retrieval", "setting": "[7]", "result": 32, "unit": "%"},
      {"measurement": "Mnestic activity (Ma), administration 15 min. before trial", "setting": "[7]", "result": 23, "unit": "%"},
      {"measurement": "Mnestic activity (Ma), administration immediately after trial", "setting": "[7]", "result": 14.0, "unit": "%"},
      {"measurement": "The amount of the Punishment Response", "setting": "[8]", "result": "48.40 ± 12.39"},
      {"measurement": "Seizure Reactions in Points (M ± m)", "setting": "[9]; 24 h after phenazepam withdrawal, pentylenetetrazol 35 mg/kg i.p., 0.5 mg/kg i.p.", "result": "0.25 ± 0.12", "unit": "points"},
      {"measurement": "Seizure Reactions in Points (M ± m)", "setting": "[9]; 48 h after phenazepam withdrawal", "result": "0.87 ± 0.1", "unit": "points"},
      {"measurement": "Seizure Reactions in Points (M ± m)", "setting": "[9]; 72 h after phenazepam withdrawal", "result": "0.5 ± 0.24", "unit": "points"}
    ]}
  ]
}
